# Read-outs that look alike come from different tables or passages of the source.
# What was measured:
# [1] = molecular target: T1, VEGFR-2 (Homo sapiens, UniProt P35968); assay: cell-based; type: cell-based; conditions: for inhibition at 10 µM: PaCa-2, PaCa2; for VEGFR-2 pg/mL ± SEM PaCa2: at 10 μM, control 326.80 ± 1.9
# T1 construct: endogenous in cells; host or cells: HCT116, PaCa2, MCF7 (human cancer cell lines, ATCC origin)
# [2] = system: A549 (lung) cancer cell line; assay: 2D-monolayer antiproliferation (MTT) against A549; type: cell-based, human; conditions: for IC50: Homo sapiens, MTT, 72 h incubation, A549 lung, read-out: IC50, μM ± SEM A549; for SI (selectivity index) A549: IC50 of RPE1 normal cell/IC50 of A549
# [3] = system: TNF-α; assay: TNF-α inhibitory properties (ELISA), PaCa2 cell lysate; type: cell-based, human; conditions: at 10 μM; for TNF-α pg/mL (± SEM) PaCa2: control 111.8 ± 2.0
# [4] = molecular target: T1, VEGFR-2; assay: cell-based; type: cell-based; conditions: for inhibition at 10 µM: MCF7; for VEGFR-2 pg/mL ± SEM MCF7: at 10 μM, control 258.70 ± 2.3
# [5] = system: HCT116 (colon) cancer cell line; assay: 2D-monolayer antiproliferation (MTT) against HCT116; type: cell-based, human; conditions: for IC50: Homo sapiens, HCT-116; for SI (selectivity index) HCT116: IC50 of RPE1 normal cell/IC50 of HCT116
# [6] = molecular target: T1, VEGFR-2; assay: cell-based; type: cell-based; conditions: for inhibition at 10 µM: HCT-116, HCT116; for VEGFR-2 pg/mL ± SEM HCT116: at 10 μM, control 317.80 ± 3.5
# [7] = molecular target: T2, COX-2 (Homo sapiens, UniProt P35354); assay: biochemical; conditions: for inhibition at 10 µM: 3 replicates, read-out: % Inhibition of COX-2 ± SEM; for SI (selectivity index, COX-2/COX-1): at 10 μM
# T2 construct: purchased BioVision incorporated USA K548–100
# T2 sequence (P35354 18-604): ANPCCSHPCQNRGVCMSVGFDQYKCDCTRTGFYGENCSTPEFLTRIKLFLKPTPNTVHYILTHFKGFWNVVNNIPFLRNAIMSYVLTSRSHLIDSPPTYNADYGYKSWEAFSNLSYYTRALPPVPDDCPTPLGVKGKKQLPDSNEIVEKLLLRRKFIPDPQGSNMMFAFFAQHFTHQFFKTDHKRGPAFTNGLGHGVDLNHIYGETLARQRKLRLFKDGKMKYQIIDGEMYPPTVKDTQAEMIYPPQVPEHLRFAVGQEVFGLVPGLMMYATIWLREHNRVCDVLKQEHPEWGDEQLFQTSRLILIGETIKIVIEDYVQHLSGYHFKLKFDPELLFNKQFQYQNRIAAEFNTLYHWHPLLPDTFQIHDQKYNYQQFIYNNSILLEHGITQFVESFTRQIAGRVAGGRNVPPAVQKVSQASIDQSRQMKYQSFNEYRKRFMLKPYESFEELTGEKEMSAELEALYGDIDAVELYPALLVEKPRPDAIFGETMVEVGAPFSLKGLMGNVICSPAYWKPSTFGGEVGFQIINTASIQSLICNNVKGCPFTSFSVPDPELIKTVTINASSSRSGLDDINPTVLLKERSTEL
# [8] = molecular target: T3, COX-1 (Ovis aries, UniProt P05979); assay: biochemical; conditions: 3 replicates, read-out: % Inhibition of COX-1 ± SEM
# T3 construct: purchased BioVision incorporated USA K548–100
# T3 sequence (P05979 25-600): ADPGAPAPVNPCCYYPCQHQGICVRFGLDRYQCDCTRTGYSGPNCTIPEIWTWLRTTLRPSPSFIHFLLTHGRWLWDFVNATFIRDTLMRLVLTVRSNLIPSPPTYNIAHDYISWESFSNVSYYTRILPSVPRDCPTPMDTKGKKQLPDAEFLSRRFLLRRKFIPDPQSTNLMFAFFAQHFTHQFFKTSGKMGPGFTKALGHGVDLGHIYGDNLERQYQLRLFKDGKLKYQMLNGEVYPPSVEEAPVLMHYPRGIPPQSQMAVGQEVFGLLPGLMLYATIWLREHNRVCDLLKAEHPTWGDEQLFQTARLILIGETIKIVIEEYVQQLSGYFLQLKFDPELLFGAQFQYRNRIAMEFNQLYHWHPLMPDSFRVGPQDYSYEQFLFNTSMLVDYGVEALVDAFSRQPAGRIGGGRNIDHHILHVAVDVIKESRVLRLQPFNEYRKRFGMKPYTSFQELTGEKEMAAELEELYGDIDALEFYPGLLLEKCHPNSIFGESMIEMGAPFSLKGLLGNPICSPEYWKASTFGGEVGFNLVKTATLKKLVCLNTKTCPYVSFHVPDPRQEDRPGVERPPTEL
# [9] = system: TNF-α; assay: TNF-α inhibitory properties (ELISA), MCF7 cell lysate; type: cell-based, human; conditions: at 10 μM; for TNF-α pg/mL (± SEM) MCF7: control 83.26 ± 1.1
# [10] = system: PaCa2 (pancreatic) cancer cell line; assay: 2D-monolayer antiproliferation (MTT) against PaCa2; type: cell-based, human; conditions: for IC50: Homo sapiens, PaCa-2, MTT, 72 h incubation, PaCa2 pancreatic, read-out: IC50, μM ± SEM PaCa2; for SI (selectivity index) PaCa2: IC50 of RPE1 normal cell/IC50 of PaCa2; for 1/(observed property): 1/observed IC50 (μM), PaCa2
# [11] = system: MCF7 (breast) cancer cell line; assay: 2D-monolayer antiproliferation (MTT) against MCF7; type: cell-based, human; conditions: for IC50: Homo sapiens, MTT, 72 h incubation, MCF7 breast, read-out: IC50, μM ± SEM MCF7; for SI (selectivity index) MCF7: IC50 of RPE1 normal cell/IC50 of MCF7
# [12] = system: RPE1 (normal human immortalized retinal pigment epithelial cell line); assay: cells; type: cell-based; conditions: for IC50: Homo sapiens, RPE-1, MTT, normal RPE1 cell, read-out: IC50, μM ± SEM RPE1; for selectivity index (SI): IC50 against RPE1 compared to the tested cancer cell line(s), in words
# [13] = system: TNF-α; assay: TNF-α inhibitory properties (ELISA), HCT116 cell lysate; type: cell-based, human; conditions: for TNF-α % inhibition HCT116 / TNF-α pg/mL (± SEM) HCT116: at 10 μM; for TNF-α pg/mL (± SEM) HCT116: control 95.74 ± 0.5
# [14] = MTT, 72 h incubation, HCT116 colon, read-out: IC50, μM ± SEM HCT116
# [15] = log of observed IC50 (μM), HCT116, read-out: Log(observed property) (converted)
# T1 sequence (P35968 20-1356): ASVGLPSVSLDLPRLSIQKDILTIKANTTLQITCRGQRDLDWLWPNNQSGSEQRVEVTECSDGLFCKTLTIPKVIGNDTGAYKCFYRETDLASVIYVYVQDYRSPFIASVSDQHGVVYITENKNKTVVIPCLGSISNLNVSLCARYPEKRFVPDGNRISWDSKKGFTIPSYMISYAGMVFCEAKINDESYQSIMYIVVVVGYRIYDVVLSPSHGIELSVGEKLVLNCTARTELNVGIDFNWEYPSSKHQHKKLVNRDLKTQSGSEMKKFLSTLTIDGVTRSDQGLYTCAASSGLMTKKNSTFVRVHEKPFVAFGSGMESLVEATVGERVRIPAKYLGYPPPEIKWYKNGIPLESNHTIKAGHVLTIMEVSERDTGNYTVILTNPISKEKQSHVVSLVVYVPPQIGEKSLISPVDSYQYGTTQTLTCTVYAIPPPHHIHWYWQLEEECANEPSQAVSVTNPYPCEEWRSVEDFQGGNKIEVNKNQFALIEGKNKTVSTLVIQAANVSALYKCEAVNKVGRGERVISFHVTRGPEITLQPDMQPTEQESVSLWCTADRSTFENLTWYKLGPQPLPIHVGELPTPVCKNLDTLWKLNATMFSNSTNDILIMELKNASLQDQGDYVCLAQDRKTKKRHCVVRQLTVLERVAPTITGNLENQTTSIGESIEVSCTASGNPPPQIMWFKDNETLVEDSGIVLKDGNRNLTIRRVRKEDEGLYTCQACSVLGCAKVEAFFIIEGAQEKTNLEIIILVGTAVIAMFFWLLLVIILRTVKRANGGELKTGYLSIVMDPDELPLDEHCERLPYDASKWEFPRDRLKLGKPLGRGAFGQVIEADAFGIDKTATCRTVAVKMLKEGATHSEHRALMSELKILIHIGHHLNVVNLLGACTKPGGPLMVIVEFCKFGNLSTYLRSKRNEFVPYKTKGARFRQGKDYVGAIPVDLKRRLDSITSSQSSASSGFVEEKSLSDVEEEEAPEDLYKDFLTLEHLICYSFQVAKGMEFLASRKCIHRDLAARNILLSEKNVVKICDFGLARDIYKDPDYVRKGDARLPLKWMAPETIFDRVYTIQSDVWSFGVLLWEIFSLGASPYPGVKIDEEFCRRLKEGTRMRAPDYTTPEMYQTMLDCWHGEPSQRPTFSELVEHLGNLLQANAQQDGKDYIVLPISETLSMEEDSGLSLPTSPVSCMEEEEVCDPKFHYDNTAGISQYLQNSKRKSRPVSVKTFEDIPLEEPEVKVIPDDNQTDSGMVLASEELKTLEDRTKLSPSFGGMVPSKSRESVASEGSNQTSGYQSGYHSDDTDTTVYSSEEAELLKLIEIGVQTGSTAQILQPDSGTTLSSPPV
SMILES,inhibition at 10 µM [1] [%],VEGFR-2 pg/mL ± SEM PaCa2 [1] [pg/mL],IC50 [2] [µM],TNF-α % inhibition PaCa2 [3] [%],TNF-α pg/mL (± SEM) PaCa2 [3] [pg/mL],inhibition at 10 µM [4] [%],VEGFR-2 pg/mL ± SEM MCF7 [4] [pg/mL],"IC50 [5, 14] [µM]","IC50 [5, 15] [µM]",SI (selectivity index) HCT116 [5],inhibition at 10 µM [6] [%],VEGFR-2 pg/mL ± SEM HCT116 [6] [pg/mL],inhibition at 10 µM [7] [%],"SI (selectivity index, COX-2/COX-1) [7]",inhibition at 10 µM [8] [%],TNF-α pg/mL (± SEM) MCF7 [9] [pg/mL],IC50 [10] [µM],SI (selectivity index) PaCa2 [10],IC50 [11] [µM],SI (selectivity index) MCF7 [11],further results
"CCOP(=O)(OCC)N1C/C(=C\c2ccccc2)C(=O)C2(C1)C(c1ccccc1)CN(C)C21C(=O)Nc2ccc(F)cc21 (stereo not shown) [Compound 17b, Diethyl (E)-(5′′-benzylidene-5-fluoro-1′-methyl-2,4′′-dioxo-4′-phenyldispiro[indoline-3,2′-pyrrolidine-3′,3′′-piperidin]-1′′-yl)phosphonate]",88.1,38.75 ± 1.4,11 ± 0.135,5.5,105.7 ± 3.9,70.2,77.20 ± 0.6,7.41 ± 0.228,7.41,3.1,77,73.25 ± 2.0,61.3 ± 2.6,1.04,53.7 ± 3.7,82.25 ± 2.6,12.2 ± 0.297,1.9,5.83 ± 0.213,4.0,SI (selectivity index) A549 [2]: 2.1; IC50 [12]: 23.1 ± 0.884 µM; TNF-α % inhibition HCT116 [13]: 1.1%; TNF-α pg/mL (± SEM) HCT116 [13]: 94.64 ± 2.2 pg/mL
"CCOP(=O)(OCC)N1C/C(=C\c2ccc(C)cc2)C(=O)C2(C1)C(c1ccc(C)cc1)CN(C)C21C(=O)Nc2ccc(F)cc21 (stereo not shown) [Compound 17n, Diethyl (E)-(5-fluoro-1′-methyl-5′′-(4-methylbenzylidene)-2,4′′-dioxo-4′-(p-tolyl)dispiro[indoline-3,2′-pyrrolidine-3′,3′′-piperidin]-1′′-yl)phosphonate]",87.5,40.70 ± 1.6,> 50,13.9,96.3 ± 3.0,66.9,85.60 ± 0.7,5.09 ± 0.191,5.09,> 9.8,63.7,115.30 ± 2.2,47.3 ± 1.4,1.08,50.6 ± 2.3,83.17 ± 4.1,15.3 ± 0.911,> 3.3,4.37 ± 0.156,> 11.5,TNF-α % inhibition MCF7 [9]: 0.1%; 1/(observed property) [10]: 0.06519; IC50 [12]: > 50 µM; selectivity index (SI) [12]: high selectivity index; TNF-α % inhibition HCT116 [13]: 9.7%; TNF-α pg/mL (± SEM) HCT116 [13]: 86.47 ± 2.4 pg/mL
"CCOP(=O)(OCC)N1C/C(=C\c2ccc(C)cc2)C(=O)C2(C1)C(c1ccc(C)cc1)CN(C)C21C(=O)Nc2ccc(Cl)cc21 (stereo not shown) [Compound 17o, Diethyl (E)-[5-chloro-1′-methyl-5′′-(4-methylbenzylidene)-2,4′′-dioxo-4′-(p-tolyl)dispiro[indoline-3,2′-pyrrolidine-3′,3′′-piperidin]-1′′-yl]phosphonate]",90.3,31.64 ± 1.9,36 ± 1.15,14.5,95.6 ± 2.2,85,38.70 ± 0.4,3.76 ± 0.064,3.76,> 13.3,84.8,48.40 ± 0.6,59.3 ± 2.4,1.14,61.7 ± 3.4,81.85 ± 3.1,6.27 ± 0.148,> 8.0,4.67 ± 0.086,> 10.7,SI (selectivity index) A549 [2]: > 1.3; TNF-α % inhibition MCF7 [9]: 1.7%; 1/(observed property) [10]: 0.1594; IC50 [12]: > 50 µM; selectivity index (SI) [12]: high selectivity index; TNF-α % inhibition HCT116 [13]: 9.8%; TNF-α pg/mL (± SEM) HCT116 [13]: 86.34 ± 0.9 pg/mL
"CCOP(=O)(OCC)N1C/C(=C\c2ccc(Cl)cc2)C(=O)C2(C1)C(c1ccc(Cl)cc1)CN(C)C21C(=O)Nc2ccccc21 (stereo not shown) [Compound 17h, Diethyl (E)-[5′′-(4-chlorobenzylidene)-4′-(4-chlorophenyl)-1′-methyl-2,4′′-dioxodispiro[indoline-3,2′-pyrrolidine-3′,3′′-piperidin]-1′′-yl]phosphonate]",94.4,18.25 ± 0.6,4.15 ± 0.288,76.3,26.5 ± 0.7,79.6,52.70 ± 0.7,3.08 ± 0.165,3.08,2.6,83.7,51.74 ± 1.5,51.5 ± 3.1,1.06,53.5 ± 2.8,21.65 ± 3.1,6.35 ± 0.17,1.3,4.07 ± 0.054,2.0,"SI (selectivity index) A549 [2]: 2.0; potency fold of the standard drug 5-fluorouracil ([5]; HCT116, ratio of IC50): 6.6 fold; potency fold of the standard drug sunitinib ([5]; HCT116, ratio of IC50): 3.1 fold; TNF-α % inhibition MCF7 [9]: 74.0%; IC50 [12]: 8.15 ± 0.675 µM; TNF-α inhibition fold of the standard ibuprofen ([13]; 10 μM): 3.6 fold; TNF-α inhibition fold of the standard indomethacin ([13]; 10 μM): 1.9 fold; TNF-α % inhibition HCT116 [13]: 80.7%; TNF-α pg/mL (± SEM) HCT116 [13]: 18.45 ± 1.1 pg/mL"
